Measured values taken from patent US5446021A, “Agricultural and horticultural compositions inducing resistance in plants against salt- and water-stress” (Nippon Zoki Pharmaceutical Co., Ltd., priority 1988, dated 1995).

What was measured:
[1] = test system: rice (Oryza sativa L. japonica); experiment: Rice growth in water culture with NaCl in the medium (no test agent); type: in vivo; conditions: for Root length / Shoot length: no test agent, 7 days after transplantation, mean ± S.E.
Protocol: (§1) A filter paper soaked with an aqueous solution of a test agent was laid in a germination dish. Even-sized seeds of rice (Oryza sativa L. japonica) were selected, washed with an aqueous solution containing 0.5% Tween 20 and 1.0% sodium hypochlorite, and then dried. The gemination dishes were sowed with the said rice seeds.
(§2) The seeds were treated with the aqueous solution of the test agent only during the germination period (4 days). The five seeds having equal root lengths were transplanted from germination dishes to water culture vessels with/without NaCl-solution, not containing any test drug. Lengths and weights of both shoots and roots were measured 7 days after transplantation.
(§3) These tests (30° C., 24 h daylight) were repeated 6 times, and the mean value and standard error (S.E.) were obtained.

[2] = test system: rice (Oryza sativa L. japonica); experiment: Effects on rice seedlings under salt-stress caused by sodium chloride (NaCl); type: in vivo; conditions: 7 days after transplantation, mean ± S.E.
Protocol: as §1, §2, §3

[3] = test system: rice seedlings; experiment: Effects on rice seedlings under water-stress caused by mannitol; type: in vivo, Oryza sativa L. japonica; conditions: 25° C., 14 h daylight
Protocol: as §1
as §2, with “transplantation. […]” for “transplantation.”
Using mannitol instead of NaCl in the similar manner (I) as mentioned above, the effects of the compounds of the present invention inducing resistance against water-stress were studied.

[4] = test system: azalea cuttings; experiment: Effect on azaleas under salt-stress caused by CaCl2; type: in vivo; conditions: cuttings in 1×10^-6 M test solution; 20% CaCl2 sprayed; 30 days after CaCl2 treatment; result in words
Protocol: Branches about 20 cm from the top of an azalea bush were cut off. The cuttings were dipped into 50 ml of water of the test solution (compound 9; 1×10^-6 M) in a glass culture tube. The solution was replaced with new solution once a week. Six days after cutting of the branches, a 20% solution of CaCl2, which has been used as an antifreezing agent, was sprayed on the cuttings. Thirty days after the CaCl2 treatment, the rate of azalea budding was measured using the following equation: [formula]

[5] = test system: tomato seedlings; experiment: Effects on tomato seedlings under salt-stress caused by NaCl; type: in vivo; conditions: 0.5% NaCl for 22 days, 25~30° C., 12 h daylight, n = 12~18
Protocol: (§4) Tomato seeds were treated with the aqueous solution of the test agent during the germination period (4 days). 9 days after transplantation from germination dishes to water culture vessels, 0.5% NaCl-solution was added to the vessels. The tomato seedlings had been cultivated for 22 days in the culture medium containing NaCl.

[6] = test system: cucumber seedlings; experiment: Effects on cucumber seedlings under salt-stress caused by NaCl; type: in vivo; conditions: 0.5% NaCl for 25 days, 25~32° C., 12 h daylight, n = 5
Protocol: as §4, with “Cucumber” for “Tomato”, “(3” for “(4”, “11” for “9”, “cucumber” for “tomato”, “been for 25 days” for “been”, “cultivated” for “cultivated for 22 days”

[7] = 1.5% NaCl, compound 1 × 10^-6 M during germination
[8] = 1.0% NaCl, compound 1 × 10^-4 M during germination (4 days)
[9] = 1.0% NaCl, compound 1 × 10^-10 M during germination
[10] = 1.5% NaCl, compound 1 × 10^-4 M during germination
[11] = 1.5% NaCl, compound 1 × 10^-10 M during germination
[12] = 1.0% NaCl, compound 5 × 10^-4 M during germination
[13] = 1.0% NaCl, compound 5 × 10^-8 M during germination
[14] = 1.5% NaCl, compound 5 × 10^-4 M during germination
[15] = 1.5% NaCl, compound 5 × 10^-8 M during germination
[16] = 1.0% NaCl, compound 1 × 10^-6 M during germination
[17] = 1.0% NaCl, compound 1 × 10^-8 M during germination
[18] = 1.5% NaCl, compound 1 × 10^-8 M during germination
[19] = 1.5% NaCl, compound 1 × 10^-10-6 M (so in the source) during germination
[20] = 1.0% NaCl, compound 5 × 10^-6 M during germination
[21] = 1.5% NaCl, compound 5 × 10^-10 M during germination
[22] = 2.5% mannitol, compound 1 × 10^-4 M
[23] = 2.5% mannitol, compound 1 × 10^-8 M
[24] = 5.0% mannitol, compound 1 × 10^-4 M
[25] = 5.0% mannitol, compound 1 × 10^-8 M
[26] = 1.5% NaCl, compound 5 × 10^-6 M during germination

Compound: [Cl-].[Na+] [NaCl, sodium chloride]
- Root length ([1]; 0.1% NaCl in water culture): 53.3 ± 2.61 mm
- Shoot length ([1]; 0.1% NaCl in water culture): 78.0 ± 1.74 mm
- Root length ([1]; 0.2% NaCl in water culture): 39.7 ± 2.02 mm
- Shoot length ([1]; 0.2% NaCl in water culture): 77.6 ± 1.63 mm
- Root length ([1]; 0.3% NaCl in water culture): 37.8 ± 1.48 mm
- Shoot length ([1]; 0.3% NaCl in water culture): 79.2 ± 1.48 mm
- Root length ([1]; 0.5% NaCl in water culture): 33.8 ± 1.76 mm
- Shoot length ([1]; 0.5% NaCl in water culture): 45.3 ± 1.82 mm
- Root length ([1]; 0.75% NaCl in water culture): 32.9 ± 1.07 mm
- Shoot length ([1]; 0.75% NaCl in water culture): 34.7 ± 0.66 mm
- Root length ([1]; 1.0% NaCl in water culture): 34.0 ± 1.75 mm
- Shoot length ([1]; 1.0% NaCl in water culture): 28.2 ± 0.47 mm
- Rice growth with NaCl in the medium ([1]; Table 1, result in words): apparently inhibited

Compound: O=C1[C@@H]2CCCN2C(=O)[C@@H]2CCCN12 (racemic) [Compound 15, ±Cyclo(Pro-Pro)]
- Root length [2, 7]: 42.7 ± 1.65 mm
- Shoot length [2, 7]: 24.2 ± 0.50 mm

Compound: CC(C)C[C@@H]1NC(=O)[C@@H]2CCCN2C1=O [Compound 2, Cyclo (L-Leu-L-Pro)]
- Root length [2, 8]: 38.2 ± 1.60 mm
- Shoot length [2, 8]: 30.4 ± 0.60 mm
- Root length [2, 9]: 37.3 ± 1.69 mm
- Shoot length [2, 9]: 31.1 ± 0.60 mm
- Root length [2, 10]: 38.3 ± 1.89 mm
- Shoot length [2, 10]: 22.3 ± 0.53 mm
- Root length [2, 11]: 39.2 ± 2.11 mm
- Shoot length [2, 11]: 21.9 ± 0.53 mm

Compound: CC(C)C[C@@H]1NC(=O)[C@@H]2C[C@@H](O)CN2C1=O [Compound 5, Cyclo (L-Leu-L-Hyp)]
- Root length [2, 12]: 19.7 ± 0.69 mm
- Shoot length [2, 12]: 28.7 ± 0.87 mm
- Root length [2, 13]: 20.5 ± 0.87 mm
- Shoot length [2, 13]: 25.4 ± 0.83 mm
- Root length [2, 14]: 13.9 ± 0.61 mm
- Shoot length [2, 14]: 17.1 ± 0.76 mm
- Root length [2, 15]: 15.7 ± 0.58 mm
- Shoot length [2, 15]: 15.6 ± 0.28 mm

Compound: O=C1[C@@H]2C[C@@H](O)CN2C(=O)[C@@H]2C[C@@H](O)CN12 [Compound 13, Cyclo(L-Hyp-L-Hyp)]
- Root length [2, 16]: 38.5 ± 1.66 mm
- Shoot length [2, 16]: 29.4 ± 0.61 mm
- Root length [2, 17]: 38.1 ± 2.03 mm
- Shoot length [2, 17]: 30.5 ± 0.59 mm
- Root length [2, 10]: 35.6 ± 2.28 mm
- Shoot length [2, 10]: 21.4 ± 0.69 mm
- Root length [2, 18]: 37.9 ± 1.58 mm
- Shoot length [2, 18]: 21.9 ± 0.40 mm

Compound: O=C1[C@@H]2C[C@H](O)CN2C(=O)[C@@H]2C[C@H](O)CN12 [Compound 14, Cyclo(L-aHyp-L-aHyp)]
- Root length [2, 16]: 43.2 ± 1.69 mm
- Shoot length [2, 16]: 31.8 ± 0.57 mm
- Root length [2, 9]: 38.2 ± 1.57 mm
- Shoot length [2, 9]: 30.4 ± 0.60 mm
- Root length [2, 10]: 35.0 ± 1.77 mm
- Shoot length [2, 10]: 21.8 ± 0.58 mm
- Root length [2, 19]: 35.3 ± 1.93 mm
- Shoot length [2, 19]: 22.6 ± 0.83 mm

Compound: CC[C@H](C)[C@@H]1NC(=O)[C@@H]2C[C@@H](O)CN2C1=O [Compound 4, Cyclo(L-Ile-L-Hyp)]
- Root length [2, 20]: 19.9 ± 0.60 mm
- Shoot length [2, 20]: 30.9 ± 1.24 mm
- Root length [2, 13]: 21.2 ± 0.68 mm
- Shoot length [2, 13]: 27.1 ± 0.67 mm
- Root length [2, 15]: 14.9 ± 0.52 mm
- Shoot length [2, 15]: 16.0 ± 0.75 mm
- Root length [2, 21]: 14.7 ± 0.52 mm
- Shoot length [2, 21]: 16.3 ± 0.66 mm

Compound: O=C1[C@@H]2C[C@@H](O)CN2C(=O)[C@@H]2CCCN12 [Compound 9, Cyclo(L-Pro-L-Hyp)]
- Root length [3, 22]: 67.7 ± 23.84 mm
- Shoot length [3, 22]: 70.2 ± 3.73 mm
- Root length [3, 23]: 68.2 ± 10.42 mm
- Shoot length [3, 23]: 63.4 ± 2.18 mm
- Root length [3, 24]: 39.6 ± 1.80 mm
- Shoot length [3, 24]: 30.0 ± 2.29 mm
- Root length [3, 25]: 46.7 ± 9.51 mm
- Shoot length [3, 25]: 27.1 ± 1.55 mm
- Protection of azaleas against salt-stress (rate of azalea budding, FIG. 1) [4]: protecting azaleas against salt-stress
- Root length [2, 12]: 19.5 ± 0.96 mm
- Shoot length [2, 12]: 28.8 ± 0.99 mm
- Root length [2, 13]: 21.8 ± 0.86 mm
- Shoot length [2, 13]: 27.1 ± 0.83 mm
- Root length [2, 26]: 15.9 ± 0.44 mm
- Shoot length [2, 26]: 17.3 ± 0.42 mm
- Root length [2, 21]: 14.0 ± 0.49 mm
- Shoot length [2, 21]: 16.0 ± 0.64 mm
- Dried stem and leaves weight ([5]; compound 1 × 10^-6 M during germination (4 days)): 111.4 ± 8.8 mg
- Dried stem and leaves weight ([5]; compound 1 × 10^-8 M during germination (4 days)): 141.4 ± 14.4 mg
- Dried stem weight ([6]; compound 1 × 10^-6 M during germination (3 days)): 104.9 ± 7.37 mg
- Dried stem weight ([6]; compound 1 × 10^-8 M during germination (3 days)): 95.5 ± 3.25 mg
